# Laboratory results: ChEMBL document CHEMBL1201862, “PubChem BioAssay data set” (2004)
# Active and inactive are the calls of the source.
# Tests used:
# HEK293 [1] = test: NOD1 signaling inhibitors, primary screen, cell-based, luminescence, uHTS (AID 1578); type: functional; details: Homo sapiens
# [2] = insulin promoter down-regulators in MIN6 cells, imaging, high-content screening, mouse beta cells (AID 1628); type: functional
# HEK293 [3] = test: cells; type: functional, cell-based; details: Homo sapiens
# [4] = cytotoxicity in MIN6 insulinoma cells, dose response, cytotoxicity control, cell-based, mouse insulinoma (AID 2122); type: functional;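 also: confirmatory high-throughput counterscreen run to flag cytotoxic compounds; mouse MIN-6 beta cells carrying an insulin promoter eGFP reporter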
# HEK293 [5] = test: cells; type: functional, cell-based; details: Homo sapiens; remark: listed apart in the source
# HEK293 [6] = test: NOD2 signaling inhibitors in MDP-stimulated cells, cell-based, uHTS, luminescence (AID 2001); type: functional; details: Homo sapiens
# INS1 = test: beta cell apoptosis inhibitors, cytokine rescue, dose response, luminescence, retest (AID 449756); type: functional, cell-based; details: Rattus norvegicus;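 also: cell death triggered by IL-1 beta plus TNF-alpha plus IFN-gamma mixture; protective hits raise ATP signal compared with cytokine alone wells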
# [7] = Shn3 3'UTR reporter inhibitors, dose response, cell-based, Clone20 osteoblasts, firefly luciferase, cherry-picked (AID 624132); type: functional;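 also: firefly luciferase luminescence from reporter carrying the Shn3 3'UTR in osteoblasts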
# [8] = HepG2 cell cytotoxicity, dose response, cytotoxicity control for Shn3 inhibitor project, CellTiter-Glo, cherry-picked (AID 624134); type: functional, cell-based
# [9] = control 3'UTR Renilla luciferase suppression, dose response, counter-screen for Shn3 inhibitor project, cell-based, Clone20-Shn3RL, cherry-picked (AID 624133); type: functional
# [10] = reduction of Shn3 3'UTR firefly luciferase signal, dose response, Schnurri-3 inhibitor project, cell-based, Clone20 osteoblasts, cherry-pick, set 2 (AID 720490); type: functional;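 also: actives lower the luminescence signal as inhibitors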
# [11] = system: Streptococcus sp. 'group A'; test: growth inhibition of control SK(-) GAS strain, dose response, counter-screen for streptokinase expression inhibitor project, luminescence, kanamycin, BacTiterGlo, confirmation (AID 1900); type: functional, organism-based
# Streptokinase A = molecular target: T1, Streptokinase A (Streptococcus pyogenes serotype M1, UniProt P10520); test: S. pyogenes streptokinase expression inhibitors, potency, dose response, plasminogen activation absorbance, OD405 (AID 1914); type: functional, Streptococcus pyogenes M1 GAS;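 also: secreted streptokinase activity via plasminogen activation per viability signal from cell pellet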
# T1 sequence (P10520 whole entry): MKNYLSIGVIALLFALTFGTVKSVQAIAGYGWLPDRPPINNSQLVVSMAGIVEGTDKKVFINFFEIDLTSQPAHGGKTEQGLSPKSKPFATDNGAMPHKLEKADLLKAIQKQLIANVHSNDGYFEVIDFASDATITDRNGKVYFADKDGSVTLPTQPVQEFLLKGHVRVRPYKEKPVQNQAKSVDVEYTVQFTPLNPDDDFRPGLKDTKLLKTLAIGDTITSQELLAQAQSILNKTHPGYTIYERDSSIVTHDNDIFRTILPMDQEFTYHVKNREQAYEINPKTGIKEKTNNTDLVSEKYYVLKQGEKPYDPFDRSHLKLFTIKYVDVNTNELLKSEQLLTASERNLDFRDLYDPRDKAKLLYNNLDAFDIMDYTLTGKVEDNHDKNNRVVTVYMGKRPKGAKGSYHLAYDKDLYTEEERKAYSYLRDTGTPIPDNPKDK
# [12] = microbe, parasite or virus in culture; type: functional; details: Mycobacterium tuberculosis
# [13] = growth suppression of PTEN-null colon cells, dose response, cell-based, HCT116 PTEN knockout (AID 1047); type: functional;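 also: HCT116 colon tumor cells with PTEN knocked out; cells exposed to compound for 60 hours before readout; potency for loss of cell viability measured by luminescence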
# [14] = growth suppression of beta-catenin-knockout colon cells, dose response, cell-based, HCT116, human colon tumor (AID 1045); type: functional;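 also: HCT116 colon tumor cells with beta catenin knocked out; cells exposed to compound for 60 hours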
# Streptococcus = test: Group A Streptococcus viability loss, dose response, counter-screen for streptokinase expression inhibitor project, luminescence, BacTiterGlo (AID 1915); type: functional, organism-based;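 also: potency for reduction of bacterial viability or growth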
# [15] = molecular target: Disintegrin and metalloproteinase domain-containing protein 17 (Homo sapiens, UniProt P78536); test: ADAM17 protease inhibitors, dose response, counter-screen for ADAM10 exosite inhibitor project, biochemical, quenched FRET substrate (AID 743253)
# [16] = HEK293T cell cytotoxicity, dose response, cytotoxicity control, CellTiter-Glo luminescence, dry powder, set 2 (AID 720595); type: functional, cell-based; details: HEK293
# [17] = molecular target: Glucose-6-phosphate 1-dehydrogenase (Homo sapiens, UniProt P11413); test: human G6PD enzyme inhibitors, dose response, selectivity assay for P. falciparum G6PD inhibitor project, biochemical, fluorescence (AID 504792); type: functional
# [18] = Luminescence-based cell-based high throughput dose response assay to identify activators of the DAF-12 from the parasite S. stercoralis (ssDAF-12).; type: functional
# [19] = molecular target: T2, Oxysterols receptor LXR-beta (Homo sapiens, UniProt P55055); test: LXR agonists, Gal4 luciferase reporter, dose response, counter-screen for ssDAF-12 agonist project, cell-based, luminescence, HEK293, S. stercoralis campaign (AID 720737); type: functional; details: read-out: IC50 (the source's name)
# T2 sequence (P55055 whole entry): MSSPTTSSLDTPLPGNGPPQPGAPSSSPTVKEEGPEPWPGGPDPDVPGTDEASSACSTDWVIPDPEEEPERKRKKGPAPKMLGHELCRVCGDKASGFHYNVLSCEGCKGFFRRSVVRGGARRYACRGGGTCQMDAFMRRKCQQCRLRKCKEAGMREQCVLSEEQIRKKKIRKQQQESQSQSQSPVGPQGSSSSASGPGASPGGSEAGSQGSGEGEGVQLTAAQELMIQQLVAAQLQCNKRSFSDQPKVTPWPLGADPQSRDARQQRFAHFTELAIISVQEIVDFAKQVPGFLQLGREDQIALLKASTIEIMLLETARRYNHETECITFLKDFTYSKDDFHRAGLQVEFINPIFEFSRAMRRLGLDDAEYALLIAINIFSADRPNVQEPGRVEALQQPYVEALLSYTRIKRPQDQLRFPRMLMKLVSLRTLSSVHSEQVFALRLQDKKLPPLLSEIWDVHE
# [20] = molecular target: T2, Oxysterols receptor LXR-beta; type: functional, cell-based
# [21] = molecular target: NAD-dependent protein deacylase sirtuin-5, mitochondrial (Homo sapiens, UniProt Q9NXA8); test: SIRT5 desuccinylase inhibitors, dose response, biochemical, fluorescence imaging, cherry-pick, set 5 (AID 720591);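 also: desuccinylation of succinyl peptide AMC substrate read as fluorescence after trypsin release; potency of inhibitors that lower fluorescence and may act on trypsin instead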
# Paired box protein Pax-8 = Paired box protein Pax-8 (Homo sapiens, UniProt Q06710); test: inhibitors of PAX8-driven TPO luciferase reporter, dose response, RMG-I cells, cherry-pick (AID 687027); type: functional, cell-based;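 also: luciferase reporter driven by Pax8 target thyroperoxidase promoter measured by SteadyGlo luminescence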
# [22] = A2780 ovarian cancer cell cytotoxicity, dose response, cytotoxicity control, plate reader, dry powder samples (AID 743046); type: functional, cell-based
# [23] = NIH:OVCAR-3 ovarian cancer cell cytotoxicity, dose response, PAX8 inhibitor project, plate reader, dry powder samples (AID 743044); type: functional, cell-based
# [24] = IGROV1 ovarian cancer cell cytotoxicity, dose response, PAX8 inhibitor project, plate reader, dry powder samples (AID 743043); type: functional, cell-based; details: IGROV-1
# [25] = cytotoxicity in OVCAR8 ovarian cancer cells, dose response, PAX8 project, cell-based, plate reader, dry powder samples (AID 743197); type: functional; details: OVCAR-8
# HEK293 [26] = test: HEK293T cell cytotoxicity, dose response, cytotoxicity control, ATP luminescence, cherry-pick samples (AID 687005); type: functional, cell-based; details: Homo sapiens;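 also: cells exposed to compound for 48 hours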
# [27] = HEK293 Cytotoxicity Assay Measured in Cell-Based System Using Plate Reader - 7071-01_Inhibitor_Dose_CherryPick_Activity_Set2.; type: functional
# [28] = HEK293 cell cytotoxicity, dose response, cytotoxicity control, cherry-picks, set 5 (AID 1053117); type: functional, cell-based
# [29] = inhibitors of fibronectin matrix deposition, dose response, AH1F cells, Alexa488-FN fluorescence, cherry-picks (AID 1035475); type: functional, cell-based
# BJ [30] = test: cytotoxicity toward BJ-TERT fibroblasts, dose response, cell-based, RAS-independent, luminescence (AID 1933); type: functional; details: Homo sapiens
# BJ [31] = test: cells; type: functional, cell-based; details: Homo sapiens
# BJ [32] = test: cytotoxicity toward BJ-TERT-LT-ST fibroblasts, dose response, cell-based, RAS-independent, luminescence (AID 1935); type: functional; details: Homo sapiens;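 also: BJ fibroblasts immortalized with TERT plus LT and ST oncogenes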
# [33] = cytotoxicity toward DRD oncogenic fibroblasts, dose response, cell-based, non-viral oncogenic, luminescence (AID 1934); type: functional; details: Homo sapiens
# [34] = HEK293 cell cytotoxicity, dose response, cytotoxicity control, dry powder samples (AID 720567); type: functional, cell-based
# [35] = HEK293T cell cytotoxicity, dose response, cytotoxicity control, CellTiter-Glo luminescence, dry powder, set 6 (AID 651949); type: functional, cell-based; details: HEK293
# [36] = molecular target: T3, Potassium channel subfamily K member 9 (Homo sapiens, UniProt Q9NPC2); test: KCNK9 (TASK3) current inhibition by patch clamp, SAR follow-up, selectivity assay for TASK1 (KCNK3) inhibitor project, cell-based, automated electrophysiology (AID 652210); type: functional
# [37] = molecular target: T3, Potassium channel subfamily K member 9; test: TASK3 (KCNK9) channel inhibitors, thallium flux, SAR follow-up, selectivity assay for TASK1 inhibitor project, cell-based, FluxOR thallium flux, concentration-response (AID 652211); type: functional;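 also: potency is for inhibitors of the channel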
# [38] = molecular target: Potassium channel subfamily K member 3 (Rattus norvegicus, UniProt O54912); test: SAR analysis for the identification of selective inhibitors of the two-pore domain potassium channel TASK1(KCNK3):Automated Electrophysiology.; type: functional
# [39] = molecular target: Potassium channel subfamily K member 3 (Homo sapiens, UniProt O14649); test: TASK1 (KCNK3) potassium channel inhibitors, SAR follow-up, CHO cells, FluxOR thallium flux (AID 652212); type: functional
# Sequence of Potassium channel subfamily K member 3 (Homo sapiens, UniProt O14649) (O14649 whole entry): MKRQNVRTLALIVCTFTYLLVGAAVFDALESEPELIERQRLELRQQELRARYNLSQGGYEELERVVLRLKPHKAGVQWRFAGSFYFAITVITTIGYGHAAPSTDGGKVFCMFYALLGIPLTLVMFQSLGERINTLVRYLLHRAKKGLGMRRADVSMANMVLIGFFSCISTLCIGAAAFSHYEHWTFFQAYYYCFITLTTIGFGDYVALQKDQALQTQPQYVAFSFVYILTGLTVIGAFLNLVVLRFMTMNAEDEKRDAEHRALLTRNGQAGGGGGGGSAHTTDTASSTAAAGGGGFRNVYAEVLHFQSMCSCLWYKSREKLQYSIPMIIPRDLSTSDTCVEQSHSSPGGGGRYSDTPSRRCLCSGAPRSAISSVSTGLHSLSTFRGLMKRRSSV
# T3 sequence (Q9NPC2 whole entry): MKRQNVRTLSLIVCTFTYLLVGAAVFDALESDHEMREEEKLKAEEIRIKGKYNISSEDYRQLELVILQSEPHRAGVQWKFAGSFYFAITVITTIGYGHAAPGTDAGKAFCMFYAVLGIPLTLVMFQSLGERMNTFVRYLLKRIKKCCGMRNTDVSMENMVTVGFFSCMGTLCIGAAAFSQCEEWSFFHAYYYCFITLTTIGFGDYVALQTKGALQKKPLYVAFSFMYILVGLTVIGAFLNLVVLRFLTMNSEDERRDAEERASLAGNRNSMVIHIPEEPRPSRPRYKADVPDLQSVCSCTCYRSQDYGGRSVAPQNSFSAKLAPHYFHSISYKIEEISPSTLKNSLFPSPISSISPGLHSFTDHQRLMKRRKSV
# Sequence of NAD-dependent protein deacylase sirtuin-5, mitochondrial (Q9NXA8 whole entry): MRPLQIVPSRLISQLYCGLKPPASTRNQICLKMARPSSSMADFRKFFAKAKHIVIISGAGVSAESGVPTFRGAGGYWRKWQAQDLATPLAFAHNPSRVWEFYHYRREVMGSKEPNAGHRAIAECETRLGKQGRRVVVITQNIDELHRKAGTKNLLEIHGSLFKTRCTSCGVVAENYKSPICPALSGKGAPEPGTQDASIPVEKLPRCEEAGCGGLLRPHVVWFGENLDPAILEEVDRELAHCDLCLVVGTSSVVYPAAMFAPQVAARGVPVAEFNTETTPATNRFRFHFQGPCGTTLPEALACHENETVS
# Sequence of Disintegrin and metalloproteinase domain-containing protein 17 (P78536 whole entry, the tested form may be a part): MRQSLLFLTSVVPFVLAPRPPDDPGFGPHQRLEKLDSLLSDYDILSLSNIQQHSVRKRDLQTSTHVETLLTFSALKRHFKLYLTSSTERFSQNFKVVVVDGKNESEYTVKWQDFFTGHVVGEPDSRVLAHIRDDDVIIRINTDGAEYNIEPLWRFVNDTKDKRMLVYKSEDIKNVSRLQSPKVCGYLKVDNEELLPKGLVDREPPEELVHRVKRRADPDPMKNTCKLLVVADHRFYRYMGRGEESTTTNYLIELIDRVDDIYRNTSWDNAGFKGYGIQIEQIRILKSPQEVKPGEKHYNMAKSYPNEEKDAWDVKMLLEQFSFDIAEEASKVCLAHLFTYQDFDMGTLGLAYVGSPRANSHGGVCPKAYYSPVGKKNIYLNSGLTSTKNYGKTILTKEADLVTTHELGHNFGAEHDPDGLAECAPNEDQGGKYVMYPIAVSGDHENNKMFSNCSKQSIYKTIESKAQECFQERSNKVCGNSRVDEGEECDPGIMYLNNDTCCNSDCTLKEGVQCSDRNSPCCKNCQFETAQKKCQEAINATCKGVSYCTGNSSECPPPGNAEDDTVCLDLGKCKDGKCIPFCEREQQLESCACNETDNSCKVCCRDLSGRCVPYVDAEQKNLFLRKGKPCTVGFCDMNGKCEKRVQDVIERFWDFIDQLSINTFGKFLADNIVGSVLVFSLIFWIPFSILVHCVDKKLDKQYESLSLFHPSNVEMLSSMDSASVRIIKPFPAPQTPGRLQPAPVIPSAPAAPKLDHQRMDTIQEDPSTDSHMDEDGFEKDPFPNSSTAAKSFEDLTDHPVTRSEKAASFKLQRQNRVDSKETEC
# Sequence of Potassium channel subfamily K member 3 (Rattus norvegicus, UniProt O54912) (O54912 whole entry, the tested form may be a part): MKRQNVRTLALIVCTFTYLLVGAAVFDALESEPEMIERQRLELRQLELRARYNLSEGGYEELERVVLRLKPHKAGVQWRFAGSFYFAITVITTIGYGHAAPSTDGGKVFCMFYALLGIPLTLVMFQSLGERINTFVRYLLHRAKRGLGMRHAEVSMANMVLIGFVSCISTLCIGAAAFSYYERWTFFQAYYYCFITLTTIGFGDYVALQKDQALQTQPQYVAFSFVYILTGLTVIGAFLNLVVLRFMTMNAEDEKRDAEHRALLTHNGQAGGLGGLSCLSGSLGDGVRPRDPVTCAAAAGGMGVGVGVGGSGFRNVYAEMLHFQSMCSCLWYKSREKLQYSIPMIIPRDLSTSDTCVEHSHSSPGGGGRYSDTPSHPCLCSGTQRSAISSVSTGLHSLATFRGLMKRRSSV
# Sequence of Glucose-6-phosphate 1-dehydrogenase (P11413 whole entry): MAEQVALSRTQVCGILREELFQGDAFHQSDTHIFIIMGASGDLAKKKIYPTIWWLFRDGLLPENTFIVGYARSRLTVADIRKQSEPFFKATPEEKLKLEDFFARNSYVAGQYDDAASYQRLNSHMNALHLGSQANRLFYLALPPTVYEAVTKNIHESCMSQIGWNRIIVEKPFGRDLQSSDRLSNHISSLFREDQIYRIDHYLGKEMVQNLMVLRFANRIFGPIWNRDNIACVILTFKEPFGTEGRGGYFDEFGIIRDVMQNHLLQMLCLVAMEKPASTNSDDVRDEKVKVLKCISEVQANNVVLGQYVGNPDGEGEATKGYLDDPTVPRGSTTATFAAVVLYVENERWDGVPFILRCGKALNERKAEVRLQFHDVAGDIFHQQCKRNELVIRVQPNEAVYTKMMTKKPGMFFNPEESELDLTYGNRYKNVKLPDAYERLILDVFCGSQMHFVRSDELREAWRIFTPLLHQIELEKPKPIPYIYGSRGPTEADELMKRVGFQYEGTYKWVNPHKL
# Sequence of Paired box protein Pax-8 (Q06710 whole entry): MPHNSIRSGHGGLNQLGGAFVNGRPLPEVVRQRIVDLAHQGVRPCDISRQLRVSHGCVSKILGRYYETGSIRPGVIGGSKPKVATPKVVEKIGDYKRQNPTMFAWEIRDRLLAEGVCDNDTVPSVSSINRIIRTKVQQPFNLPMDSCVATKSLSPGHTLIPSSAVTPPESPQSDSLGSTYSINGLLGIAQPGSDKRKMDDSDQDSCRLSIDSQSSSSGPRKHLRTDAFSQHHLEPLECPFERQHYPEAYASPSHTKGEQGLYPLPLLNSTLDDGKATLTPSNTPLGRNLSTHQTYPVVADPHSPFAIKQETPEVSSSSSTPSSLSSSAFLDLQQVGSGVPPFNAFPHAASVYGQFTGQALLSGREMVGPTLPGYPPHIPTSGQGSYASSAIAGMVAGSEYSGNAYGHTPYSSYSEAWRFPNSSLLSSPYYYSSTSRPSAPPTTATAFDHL
structure (smiles),measurement,setting,value
O=C(c1cc(COc2ccc3ncccc3c2)on1)N1CCCCCC1,EC50,HEK293 [1],1.85 µM (active)
same,IC50,[2],1.86 µM (active)
same,IC50,HEK293 [3],5.76 µM (active)
same,IC50,[4],1.13 µM (active)
same,IC50,HEK293 [5],> 20 µM (inactive)
same,IC50,HEK293 [6],13.2 µM (inactive)
same,AC50,INS1,5.88 µM (active)
same,AC50,[7],0.703 µM (active)
same,AC50,[8],43.6 µM (active)
same,AC50,[9],23.4 µM (active)
same,AC50,[10],3.57 µM (active)
O=[N+]([O-])c1ccc(-c2nc(-c3cccs3)c(-c3cccs3)[nH]2)cc1,EC50,[11],11.6 µM (active)
same,EC50,Streptokinase A,20.1 µM (active)
same,CC50,[12],19.5 µM (active)
same,EC50,[13],17.1 µM (active)
same,EC50,[14],19 µM (active)
same,EC50,Streptococcus,17.3 µM (active)
same,IC50,[15],> 69.5 µM (inactive)
CC1CCN(S(=O)(=O)c2ccc(C(=O)Nc3nnc(-c4ccco4)o3)cc2)CC1,AC50,[16],> 52 µM (inactive)
COc1ccc(C(=O)/C=C2\Sc3ccccc3N2C)cc1,IC50,[17],> 80 µM (inactive)
same,IC50,[18],> 67.6 µM (inactive)
same,EC50,[19],> 67.6 µM (inactive)
Cc1csc(NC(=O)c2oc3ccccc3c2C)n1,EC50,[20],> 67.6 µM (inactive)
same,EC50,cells,> 67.6 µM (inactive)
COc1ccc(NC(=O)c2cccnc2N2CCCC2)cc1,AC50,[21],> 30 µM (inactive)
O=C1CN(S(=O)(=O)Cc2ccccc2)C[C@@H]2[C@@H](c3ccc(C#CCC4CCCC4)cc3)[C@@H](CO)N12,AC50,Paired box protein Pax-8,4.58 µM (active)
same,AC50,[22],11.3 µM (active)
same,AC50,[23],4.22 µM (active)
same,AC50,[24],18.8 µM (active)
same,AC50,[25],28.1 µM (active)
COc1ccccc1CNC(=O)C[C@@H]1C[C@H]2c3cc(NC(=O)Nc4ccccc4F)ccc3O[C@H]2[C@@H](CO)O1,AC50,HEK293 [26],26.6 µM (active)
same,AC50,[27],26.6 µM (active)
N#Cc1ccc(-c2ccc3c(c2)[C@@H]2[C@@H](CCN2S(=O)(=O)c2cccc(F)c2)[C@H](CO)N3)cc1,AC50,[28],> 52 µM (inactive)
same,AC50,[29],1.18 µM (active)
C/C(=N\NC(=O)c1c([N+](=O)[O-])c(C)nn1C)c1ccc(NC(=O)C2CCCC2)cc1,EC50,BJ [30],1.02 µM (active)
same,EC50,BJ [31],0.476 µM (active)
same,EC50,BJ [32],0.918 µM (inconclusive)
same,EC50,[33],0.605 µM (active)
same,AC50,[34],12.8 µM (active)
COc1ccc(CSc2nnc(-c3ccccc3)o2)cc1,AC50,[35],> 52 µM (inactive)
CCOc1ccccc1NC(=O)c1cccc(NC(=O)c2ccccc2C(F)(F)F)c1,IC50,[36],0.52 µM (active)
same,IC50,[37],0.32 µM (active)
same,IC50,[38],0.006 µM (active)
same,IC50,[39],0.03 µM (active)
